# Tests used:
# [1] = target: T1, EGFR (Homo sapiens, UniProt P00533); assay: Luciferase-coupled chemiluminescence kinase assay; format: biochemical; settings: ATP at Km
# T1 construct: residues H672-A1210 of human EGFR, Proqinase; purchased Proqinase
# Protocol: (§2) Dose-response experiments were done using 10 different inhibitor concentrations in 384-well microtiter plates. The ATP concentration used for each assay was equivalent to the Km for each kinase.
# (§3) A Luciferase-coupled chemiluminescence assay was used to measure EGFR and KDR (VEGFR2) activity. Kinase activity was measured as the percentage of ATP consumed following the kinase reaction using luciferase-luciferin-coupled chemiluminescence. Reactions were conducted in 384-well white, medium-binding microtiter plates (Greiner). […] The reaction mixture was incubated at room temperature for 4 h. Following the kinase reaction, a 20 μL aliquot of Kinase Glo (Promega) was added and luminescence signal was measured using a Victor2 plate reader (Perkin-Elmer). Total ATP consumption was limited to 50%.
# [2] = system: Adrenergic, Beta, Non-selective; assay: NovaScreen assay; format: binding
# [3] = system: Dopamine, Non-selective; assay: NovaScreen assay; format: binding
# [4] = system: GABA A, Agonist Site; assay: NovaScreen assay; format: binding
# [5] = system: Glutamate, Kainate Site; assay: NovaScreen assay; format: binding
# [6] = system: Melatonin, Non-selective; assay: NovaScreen assay; format: binding
# [7] = target: T2, Muscarinic, M1 (Human Recombinant) (Homo sapiens, UniProt P11229); assay: NovaScreen assay; format: binding
# T2 construct: NovaScreen
# [8] = target: T3, Muscarinic, M2 (Human Recombinant) (Homo sapiens, UniProt P08172); assay: NovaScreen assay; format: binding
# T3 construct: NovaScreen
# [9] = system: Nicotinic (a-bungarotoxin insensitive); assay: NovaScreen assay; format: binding
# [10] = target: T4, Norepinephrine Transporter (Homo sapiens, UniProt P23975); assay: NovaScreen assay; format: binding; settings: read-out: Inhibition, 10 μM XL-647
# T4 construct: NovaScreen
# [11] = system: Opiate, Non-selective; assay: NovaScreen assay; format: binding
# [12] = target: T5, Angiotensin II, AT2 (Homo sapiens, UniProt P50052); assay: NovaScreen assay; format: binding; settings: read-out: Inhibition, 10 μM XL-647
# T5 construct: NovaScreen
# [13] = target: T6, Neurokinin, NK3 (NKB) (Homo sapiens, UniProt P29371); assay: NovaScreen assay; format: binding; settings: read-out: Inhibition, 10 μM XL-647
# T6 construct: NovaScreen
# [14] = target: T7, Acetylcholinesterase (Homo sapiens, UniProt P22303); assay: NovaScreen assay; format: biochemical; settings: read-out: Inhibition, 10 μM XL-647
# T7 construct: NovaScreen
# [15] = target: T8, Choline Acetyltransferase (Homo sapiens, UniProt P28329); assay: NovaScreen assay; format: biochemical; settings: read-out: Inhibition, 10 μM XL-647
# T8 construct: NovaScreen
# [16] = system: Glutamic Acid Decarboxylase; assay: NovaScreen assay; format: biochemical
# [17] = target: T9, EphA2 (Homo sapiens, UniProt P29317); assay: Chemiluminescent kinase assay; format: biochemical
# T9 construct: Human, N598-; mM MgCl2, 3 mM MnCl2,; R890, N-His6; His6 (N)
# Protocol: as §3
# [18] = system: PC-3 human tumor xenograft; assay: PC-3 xenograft, tumor growth; format: in vivo; settings: Mus musculus; qd × 28
# Protocol: The response of tumors to treatment was determined by comparing the mean tumor weight of the treatment group with the appropriate control group. Percentage inhibition of tumor growth was determined with the following formula: Percentage inhibition=100×[1−(Xf−Xo)/(Yf−Yo)], where Xf and Yf are the mean tumor weights of the treatment and control groups, respectively, on day f, and Xo and Yo are the mean tumor weights of treatment and control groups respectively, on day zero (staged tumor weights after grouping)
# [19] = in vivo; parameters: species or system mice, rats, dogs, and monkeys
# Protocol: The nonclinical Pharmacokinetics (PK) of XL-647 was studied in mice, rats, dogs, and monkeys. Animals were dosed either once or daily over several days, as described in Table 21 and 22 below. A summary of results can also be found in Tables 21 and 22 below. […] Mean tmax values were approximately 4 to 8 hours, and plasma terminal half-lives ranged from 9.41 to 20.9 hours.
# [20] = Clinical Study XL-647-001 (Phase 1, Intermittent 5&9 schedule); settings: human, in vivo
# Protocol: (§1) Enrollment is complete, and all subjects have been off study as of 31 May 2007. Subjects initially received a powder in bottle (PIB) formulation using mass-based dosing. […] The final cohort received a fixed dose of 350 mg in a tablet formulation.
# [21] = system: subjects with advanced solid tumors; assay: as above
# Protocol: as §1
# [22] = system: subjects with relapsed or recurrent NSCLC; assay: Clinical Study XL-647-203 (Phase 2, relapsed or recurrent NSCLC); format: in vivo, human; settings: n=41
# Excerpt: Study XL-647-203: Subjects (n=41) with relapsed or recurrent NSCLC (Stage IIIB or IV) with documented progressive disease after benefit from single agent treatment with erlotinib or gefitinib or with a known EGFR T790M mutation were enrolled.
# [23] = mouse, in vivo, 100 mg/kg/day
# Protocol: Throughout the dosing period, tumor size was measured twice weekly (where applicable), and body weight was measured daily. […] Tumors were excised at the termination of some studies and examined histologically for microvascular density (CD31 staining), proliferating cells (Ki67 staining), and necrosis (hematoxylin/eosin staining).
# Tolerability was monitored in these studies by daily measurement of body weight.
# [24] = target: CYP2D6 (Homo sapiens, UniProt P10635)
# [25] = clinical; settings: human, in vivo
# [26] = target: KDR (Homo sapiens, UniProt P35968); assay: Luciferase-coupled chemiluminescence kinase assay; format: biochemical; parameters: residues D807-V1356 of human KDR, Proqinase; purchased Proqinase; settings: ATP at Km
# Protocol: as §2, §3
# [27] = read-out: Inhibition, 10 μM XL-647
# T3 sequence (P08172 whole entry): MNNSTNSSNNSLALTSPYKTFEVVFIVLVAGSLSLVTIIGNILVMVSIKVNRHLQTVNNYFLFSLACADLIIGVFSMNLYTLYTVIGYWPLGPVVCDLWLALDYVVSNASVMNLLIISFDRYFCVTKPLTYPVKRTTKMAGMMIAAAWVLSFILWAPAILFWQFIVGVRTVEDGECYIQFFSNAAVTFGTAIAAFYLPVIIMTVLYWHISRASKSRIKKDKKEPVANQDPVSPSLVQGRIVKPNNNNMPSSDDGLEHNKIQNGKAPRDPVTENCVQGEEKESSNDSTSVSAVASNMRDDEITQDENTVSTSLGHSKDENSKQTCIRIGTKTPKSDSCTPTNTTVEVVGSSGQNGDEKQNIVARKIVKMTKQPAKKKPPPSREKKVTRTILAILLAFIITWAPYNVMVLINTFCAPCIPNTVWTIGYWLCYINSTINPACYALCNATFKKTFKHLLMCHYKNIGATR
# T2 sequence (P11229 whole entry): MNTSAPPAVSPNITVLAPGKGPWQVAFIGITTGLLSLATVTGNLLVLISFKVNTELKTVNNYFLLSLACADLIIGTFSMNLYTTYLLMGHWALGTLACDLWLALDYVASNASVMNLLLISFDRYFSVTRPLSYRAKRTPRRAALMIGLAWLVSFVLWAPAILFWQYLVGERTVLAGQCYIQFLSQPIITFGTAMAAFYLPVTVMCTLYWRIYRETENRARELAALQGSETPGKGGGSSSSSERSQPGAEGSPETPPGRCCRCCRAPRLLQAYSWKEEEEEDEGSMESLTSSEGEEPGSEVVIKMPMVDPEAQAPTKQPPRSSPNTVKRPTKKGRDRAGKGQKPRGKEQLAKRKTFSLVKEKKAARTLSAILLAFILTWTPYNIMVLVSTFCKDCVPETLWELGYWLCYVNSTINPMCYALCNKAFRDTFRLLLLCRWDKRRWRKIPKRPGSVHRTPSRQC
# T7 sequence (P22303 32-614, species assumed): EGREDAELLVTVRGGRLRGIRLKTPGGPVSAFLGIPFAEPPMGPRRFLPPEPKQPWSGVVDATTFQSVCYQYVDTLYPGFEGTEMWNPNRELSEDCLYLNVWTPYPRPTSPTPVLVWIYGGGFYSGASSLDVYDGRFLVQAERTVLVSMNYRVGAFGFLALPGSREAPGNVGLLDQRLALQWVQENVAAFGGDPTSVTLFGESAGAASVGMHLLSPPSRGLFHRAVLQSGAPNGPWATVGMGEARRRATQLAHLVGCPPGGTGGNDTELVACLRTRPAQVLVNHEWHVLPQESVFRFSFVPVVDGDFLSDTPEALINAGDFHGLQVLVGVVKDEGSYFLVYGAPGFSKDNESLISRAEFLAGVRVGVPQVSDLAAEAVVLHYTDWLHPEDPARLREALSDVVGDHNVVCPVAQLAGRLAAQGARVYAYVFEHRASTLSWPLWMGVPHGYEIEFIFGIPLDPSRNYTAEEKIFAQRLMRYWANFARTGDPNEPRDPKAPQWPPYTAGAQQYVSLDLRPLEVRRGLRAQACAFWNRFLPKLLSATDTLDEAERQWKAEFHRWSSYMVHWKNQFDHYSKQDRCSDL
# T4 sequence (P23975 whole entry, species assumed): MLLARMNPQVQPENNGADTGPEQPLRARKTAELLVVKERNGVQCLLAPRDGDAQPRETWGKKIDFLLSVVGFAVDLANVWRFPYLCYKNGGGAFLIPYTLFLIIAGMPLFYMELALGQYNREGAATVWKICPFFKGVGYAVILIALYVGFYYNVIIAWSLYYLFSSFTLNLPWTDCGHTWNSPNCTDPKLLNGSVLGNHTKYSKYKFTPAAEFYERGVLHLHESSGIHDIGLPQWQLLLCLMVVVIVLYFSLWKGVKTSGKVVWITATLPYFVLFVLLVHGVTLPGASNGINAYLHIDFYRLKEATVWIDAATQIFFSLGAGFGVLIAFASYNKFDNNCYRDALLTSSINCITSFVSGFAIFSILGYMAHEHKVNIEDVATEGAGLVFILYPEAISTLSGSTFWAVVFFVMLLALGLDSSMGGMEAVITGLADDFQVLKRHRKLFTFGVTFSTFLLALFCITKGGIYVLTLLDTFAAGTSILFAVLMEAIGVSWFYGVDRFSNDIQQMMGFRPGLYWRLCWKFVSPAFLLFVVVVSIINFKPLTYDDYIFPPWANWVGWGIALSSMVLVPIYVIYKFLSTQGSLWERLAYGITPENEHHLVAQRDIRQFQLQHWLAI
# Sequence of KDR (P35968 807-1356): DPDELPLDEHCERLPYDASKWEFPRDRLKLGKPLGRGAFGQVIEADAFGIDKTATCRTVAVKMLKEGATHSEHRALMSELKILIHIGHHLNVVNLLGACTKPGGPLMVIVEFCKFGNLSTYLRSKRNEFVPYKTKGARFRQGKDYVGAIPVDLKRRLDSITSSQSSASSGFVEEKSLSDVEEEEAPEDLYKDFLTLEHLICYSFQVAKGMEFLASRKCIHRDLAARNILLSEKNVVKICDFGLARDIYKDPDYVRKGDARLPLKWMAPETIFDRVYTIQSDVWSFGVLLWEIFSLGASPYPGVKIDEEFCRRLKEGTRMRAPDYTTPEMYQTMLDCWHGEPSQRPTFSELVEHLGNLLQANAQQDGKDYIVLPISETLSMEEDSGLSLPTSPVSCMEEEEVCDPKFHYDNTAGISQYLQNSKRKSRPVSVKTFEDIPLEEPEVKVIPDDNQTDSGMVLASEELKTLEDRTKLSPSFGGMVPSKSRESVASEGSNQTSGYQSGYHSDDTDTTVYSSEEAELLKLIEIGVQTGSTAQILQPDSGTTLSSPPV
# T1 sequence (P00533 672-1210): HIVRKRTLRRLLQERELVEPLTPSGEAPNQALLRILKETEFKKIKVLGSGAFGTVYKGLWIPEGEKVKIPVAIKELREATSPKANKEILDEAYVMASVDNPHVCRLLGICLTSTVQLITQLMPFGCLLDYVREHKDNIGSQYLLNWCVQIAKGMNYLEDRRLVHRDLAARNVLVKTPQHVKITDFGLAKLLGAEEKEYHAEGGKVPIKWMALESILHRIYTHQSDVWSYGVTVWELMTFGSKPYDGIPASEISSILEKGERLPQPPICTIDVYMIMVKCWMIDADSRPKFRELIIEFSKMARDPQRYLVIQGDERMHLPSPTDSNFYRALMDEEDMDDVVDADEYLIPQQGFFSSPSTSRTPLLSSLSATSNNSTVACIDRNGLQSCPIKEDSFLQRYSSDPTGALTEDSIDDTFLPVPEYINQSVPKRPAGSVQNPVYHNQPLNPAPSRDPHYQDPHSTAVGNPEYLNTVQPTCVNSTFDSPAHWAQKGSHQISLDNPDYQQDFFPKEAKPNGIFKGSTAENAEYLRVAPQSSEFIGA
# T6 sequence (P29371 whole entry): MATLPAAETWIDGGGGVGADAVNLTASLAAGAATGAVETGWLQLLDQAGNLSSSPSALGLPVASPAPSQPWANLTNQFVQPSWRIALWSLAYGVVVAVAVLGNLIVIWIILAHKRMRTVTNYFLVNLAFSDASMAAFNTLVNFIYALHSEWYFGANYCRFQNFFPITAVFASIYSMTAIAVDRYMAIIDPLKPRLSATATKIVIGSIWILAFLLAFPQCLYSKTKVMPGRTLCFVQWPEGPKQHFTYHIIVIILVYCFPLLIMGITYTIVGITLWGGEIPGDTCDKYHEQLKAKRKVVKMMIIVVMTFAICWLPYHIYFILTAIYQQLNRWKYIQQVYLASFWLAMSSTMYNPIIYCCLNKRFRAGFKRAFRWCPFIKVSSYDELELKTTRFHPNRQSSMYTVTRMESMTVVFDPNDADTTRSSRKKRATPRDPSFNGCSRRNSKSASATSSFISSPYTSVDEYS
# T9 sequence (P29317 598-890): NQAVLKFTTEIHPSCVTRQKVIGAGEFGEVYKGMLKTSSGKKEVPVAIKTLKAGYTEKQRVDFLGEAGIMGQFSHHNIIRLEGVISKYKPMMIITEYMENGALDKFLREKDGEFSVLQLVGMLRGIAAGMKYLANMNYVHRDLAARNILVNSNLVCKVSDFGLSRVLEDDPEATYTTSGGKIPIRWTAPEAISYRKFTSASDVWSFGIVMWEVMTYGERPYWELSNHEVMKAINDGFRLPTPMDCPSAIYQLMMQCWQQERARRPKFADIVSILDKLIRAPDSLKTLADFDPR
# Sequence of CYP2D6 (P10635 whole entry): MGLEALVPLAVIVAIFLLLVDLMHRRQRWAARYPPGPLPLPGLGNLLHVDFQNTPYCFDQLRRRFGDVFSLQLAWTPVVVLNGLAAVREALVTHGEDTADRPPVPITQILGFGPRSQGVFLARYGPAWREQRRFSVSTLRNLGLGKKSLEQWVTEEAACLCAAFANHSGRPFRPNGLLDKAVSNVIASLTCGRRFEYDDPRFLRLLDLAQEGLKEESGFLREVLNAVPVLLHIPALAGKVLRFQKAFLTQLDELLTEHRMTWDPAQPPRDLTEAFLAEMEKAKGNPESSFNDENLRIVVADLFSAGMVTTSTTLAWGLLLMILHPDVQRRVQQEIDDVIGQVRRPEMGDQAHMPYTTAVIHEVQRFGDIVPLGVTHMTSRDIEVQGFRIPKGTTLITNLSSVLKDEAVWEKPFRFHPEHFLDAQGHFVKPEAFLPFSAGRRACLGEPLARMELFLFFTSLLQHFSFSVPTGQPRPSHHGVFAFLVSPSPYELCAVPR
# T5 sequence (P50052 whole entry): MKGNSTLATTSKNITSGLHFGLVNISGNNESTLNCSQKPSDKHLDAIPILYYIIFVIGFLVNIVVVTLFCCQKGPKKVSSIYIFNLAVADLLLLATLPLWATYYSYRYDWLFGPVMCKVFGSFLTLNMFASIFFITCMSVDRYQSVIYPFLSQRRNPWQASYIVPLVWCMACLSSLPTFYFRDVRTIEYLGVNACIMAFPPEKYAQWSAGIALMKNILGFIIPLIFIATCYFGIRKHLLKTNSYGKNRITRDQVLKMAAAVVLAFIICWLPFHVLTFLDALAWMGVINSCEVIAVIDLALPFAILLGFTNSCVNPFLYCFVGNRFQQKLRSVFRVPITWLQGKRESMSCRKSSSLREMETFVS
smiles,measurement,setting,value
"COc1cc2c(Nc3ccc(Cl)c(Cl)c3F)ncnc2cc1OC[C@@H]1C[C@@H]2CN(C)C[C@@H]2C1 [XL-647, N-(3,4-dichloro-2-fluorophenyl)-7-({[(3aR,5r,6aS)-2-methyloctahydrocyclopenta[c]pyrrol-5-yl]methyl}oxy)-6-(methyloxy)quinazolin-4-amine]",IC50,[1],0.3 ± 0.1 nM
same,"Inhibition, 10 μM XL-647",[2],18.01%
same,"Inhibition, 10 μM XL-647",[3],34.88%
same,"Inhibition, 10 μM XL-647",[4],1.07%
same,"Inhibition, 10 μM XL-647",[5],0.89%
same,"Inhibition, 10 μM XL-647",[6],0.18%
same,IC50,[7],2330 nM
same,inhibition at 10 µM,[7]; [27],98.1%
same,IC50,[8],1180 nM
same,inhibition at 10 µM,[8]; [27],98.7%
same,"Inhibition, 10 μM XL-647",[9],53.97%
same,inhibition at 10 µM,[10],-5.38%
same,"Inhibition, 10 μM XL-647",[11],39.73%
same,inhibition at 10 µM,[12],16.6%
same,inhibition at 10 µM,[13],20%
same,inhibition at 10 µM,[14],49.4%
same,inhibition at 10 µM,[15],1.27%
same,"Inhibition, 10 μM XL-647",[16],−8.46%
same,IC50,[17],6.8 ± 0.8 nM
same,ED50,[18],34 mg/kg
same,accumulation in plasma,[19],< 2 fold
same,"dose proportionality of AUC, in words",[19],approximately dose proportionally over lower dose ranges
same,bioavailability,"[19]; dog, po",63 to 74%
same,Tmax,"[19]; mouse, rat, dog, monkey",4 to 8 h
same,half-life,"[19]; mouse, rat, dog, monkey",565 to 1250 min
same,volumes of distribution,"[19]; mouse, rat, dog, monkey, iv",> 18 L/kg
same,"oral bioavailability, in words",[19]; po,"orally bioavailable in mice, rats and dogs"
same,MTD,[20],4.68 mg/kg
same,MTD converted to a fixed dose,[21]; Intermittent 5&9 schedule,350 mg
same,subjects with unconfirmed partial response (PR),"[21]; NSCLC, Day 228",one
same,other subjects with prolonged stable disease lasting greater than 3 months,[21]; intermittent schedule,14 subjects
same,subjects with PR,[22],one
same,subjects with SD as best response,[22],19 subjects
same,"tolerability, in words",[23],generally well-tolerated in mice without substantial body weight loss
same,"CYP2D6 inhibition, in words",[24],inhibitor
same,half-life,[25],~2.5 days
same,Tmax,[25]; po,~4 h
same,IC50,[26],1.5 ± 0.2 nM
